Results on two compounds are retold here after PMC2698315 (Journal of Chemical Biology, 2008).

Experiment [1] deals with Vascular endothelial protein tyrosine phosphatase (VE-PTP). The experiment can be described thus: Phosphatase inhibition assay. It is filed as biochemical. The conditions noted are these: 4PL fit, 37 °C, 1 mM substrate, Fig. 3b (quadrant 2).
For experiment [2], the target named is vaccinia virus VH1-related (VHR) phosphatase (Homo sapiens, UniProt P51452). It is filed as biochemical. The conditions noted are these: 4PL fit, 37 °C, 5 mM substrate, Fig. 3a (quadrant 3).
Chain of vaccinia virus VH1-related (VHR) phosphatase (P51452 whole entry): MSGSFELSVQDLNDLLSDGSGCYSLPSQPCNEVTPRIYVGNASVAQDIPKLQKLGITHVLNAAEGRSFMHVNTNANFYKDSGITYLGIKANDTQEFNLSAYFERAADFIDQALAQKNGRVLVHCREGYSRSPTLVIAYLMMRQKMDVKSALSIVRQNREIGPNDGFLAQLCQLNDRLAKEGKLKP

As to `O=C(O[C@@H]1Cc2c(O)cc(O)cc2O[C@@H]1c1cc(O)c(O)c(O)c1)c1cc(O)c(O)c(O)c1` [compound 172, Epigallocatechin-3-monogallate], the Hill coefficient in experiment [1] turned out to be 0.55.
For `CC(C)(c1ccc(NS(=O)(=O)C(F)(F)F)cc1)c1ccc(C(C)(C)c2ccc(NS(=O)(=O)C(F)(F)F)cc2)cc1` [compound 281, bis(4-trifluoromethylsulfonamidophenyl)-1,4-diisopropylbenzene], the Hill coefficient in experiment [2] was determined as 2.7.
